Data published in US20210236698A1, “ANTIMICROBIAL LOCKING SOLUTIONS COMPRISING TAURINAMIDE DERIVATIVES AND BIOLOGICALLY ACCEPTABLE SALTS AND ACIDS, WITH THE ADDITION OF SMALL CONCENTRATIONS OF HEPARIN” (ND Partners, LLC, priority 2004, published 2021).

Assays:
[1] = Long term stability tests of taurolidine in solution; assay type: physicochemical; conditions: citric acid and sodium citrate in combination, versus solution prepared with PVP
From the text: In addition, citric acid is a known antioxidant. […] The composition employed in the practice of the present invention preferably also contains a pharmacologically acceptable carrier solution, such as, water, Ringer's solution, or saline.

[2] = Biocidal effectiveness of taurolidine solution with citrate/citric acid pH adjustment; conditions: citrates and citric acid, pH of end solution in the vicinity of 5.2 to 6.5
From the text: The concentration of taurolidine in such solutions is preferably in the range of from about 0.4 to about 5% by weight, depending upon the solubility of the compound. […] The approach creates a buffer system of citric acid/sodium citrate by adjustment of pH using sodium hydroxide. This buffer system also resists changes in the pH due to the oxidation of formaldehyde to formic acid.

red cells = assay type: cell-based
From the text: The trial results by Dr Allon were examined by researchers in a group of experiments at the Naval Blood Laboratory and Boston University Medical School. […] However, the researchers were not able to determine exactly how their results were relevant to the findings in the University of Alabama clinical trial.

Compound | precipitation of solid taurolidine and reaction products from solution [1] | biocidal effectiveness [2] | changes to blood in contact with solution (red cells)
O=S1(=O)CCN(CN2CCS(=O)(=O)NC2)CN1 [taurolidine] | prevents or severely slows down | substantially increases | morphological changes to red cells
heparin | – | – | did not happen
